In patent publication US20230312616A1, “MODULATORS OF CYSTIC FIBROSIS TRANSMEMBRANE CONDUCTANCE REGULATOR” (priority 2018, published 2023):

These molecules were tested on CFTR (assay: CFTR modulating activity, generated using one or more of the assays disclosed (e.g. membrane potential dye assay in enteroid cells)). Details: one or more of the assays disclosed herein; qualitative (Active / ND).
Format: cell-based, human
From the text: Human intestinal epithelial enteroid cells may be obtained from the Hubrecht Institute for Developmental Biology and Stem Cell Research, Utrecht, The Netherlands and expanded in T-Flasks as previously described (Dekkers JF, Wiegerinck CL, de Jonge HR, Bronsveld I, Janssens HM, de Winter-de Groot KM, Brandsma AM, de Jong NWM, Bijvelds MJC, Scholte BJ, Nieuwenhuis EES, van den Brink S, Clevers H, van der Ent CK, Middendorp S and M Beekman JM. A functional CFTR assay using primary cystic fibrosis intestinal organoids. Nat Med. 2013 Jul;19(7):939-45.).
Cells may be recovered in cell recovery solution, collected by centrifugation at 650 rpm for 5 min at 4° C., resuspended in TryPLE and incubated for 5 min at 37° C. Cells can then be collected by centrifugation at 650 rpm for 5 min at 4° C. and resuspended in IEMM containing 10 µM ROCK inhibitor (RI). The cell suspension is then passed through a 40 µm cell strainer and resuspended at 1x10^6 cells/mL in IEMM containing 10 µM RI. Cells may be seeded at 5000 cells/well into multi-well plates and incubated for overnight at 37° C., 95% humidity and 5% CO2 prior to assay.
Enteroid cells may be incubated with test compound in IEMM for 18-24 hours at 37° C., 95% humidity and 5% CO2. Following compound incubations, a membrane potential dye assay can be employed using a FLIPR Tetra to directly measure the potency and efficacy of the test compound on CFTR-mediated chloride transport following acute addition of 10 µM forskolin and 300 nM N-[2,4-bis(1,1-dimethylethyl)-5-hydroxyphenyl]-1,4-dihydro-4-oxoquinoline-3-carboxamide. Briefly, cells aree washed 5 times in Bath 1 Buffer. Bath 1 Dye Solution is added and the cells are incubated for 25 min at room temperature. Following dye incubation, cells are washed 3 times in Chloride Free Dye Solution. Chloride transport is initiated by addition of Chloride Free Dye Stimulation Solution and the fluorescence signal is read for 15 min. The CFTR-mediated chloride transport for each condition may be determined from the AUC of the fluorescence response to acute forskolin and 300 nM N-[2,4-bis(1,1-dimethylethyl)-5-hydroxyphenyl]-1,4-dihydro-4-oxoquinoline-3-carboxamide stimulation.
Chloride transport may be expressed as a percentage of the chloride transport following treatment with one or more reference standards or positive controls. Suitable reference standards/controls include one or more of Compound II, Compound III, Compound IV, and Compound A. Compound A is:
Table 6 confirms CFTR modulating activity for representative compounds of the invention generated using one or more of the assays disclosed herein.
With `C[C@@H]1CN(c2nc(-n3ccc(OCCC4(C(F)(F)F)CC4)n3)ccc2C(=O)NS(=O)(=O)c2ccccc2)C(C)([Si](C)(C)C)C1` (single isomer, unassigned) [2-10 Isomer 2] the “CFTR Modulating Activity” value was “Active”. In the case of `CC1(C)CC([Si](C)(C)C)CN1c1nc(-n2ccc(OCCC3(C(F)(F)F)CC3)n2)ccc1C(=O)NS(=O)(=O)c1ccccc1` (single isomer, unassigned) [2-13 Enantiomer 1, N-(Benzenesulfonyl)-2-(2,2-dimethyl-4-trimethylsilyl-pyrrolidin-1-yl)-6-[3-[2-[1-(Trifluoromethyl)Cyclopropyl]Ethoxy]Pyrazol-1-yl]Pyridine-3-carboxamide], the “CFTR Modulating Activity” value was “Active”. `C[C@@H]1CN(c2nc(-n3ccc(OCCC4(C(F)(F)F)CC4)n3)c([Si](C)(C)C)cc2C(=O)NS(=O)(=O)c2ccccc2)C(C)(C)C1` [Compound 2-1, N-(Benzenesulfonyl)-6-[3-[2-[1-(Trifluoromethyl)Cyclopropyl]Ethoxy]Pyrazol-1-yl]-2-[(4S)-2,2,4-trimethylpyrrolidin-1-yl]-5-trimethylsilyl-pyridine-3-carboxamide] was tested, and the “CFTR Modulating Activity” value was “Active”. In the case of `C[C@@H]1CN(c2nc([Si](C)(C)c3ccccc3)ccc2C(=O)NS(=O)(=O)c2ccccc2)C(C)(C)C1` [Compound 2-2, N-(Benzenesulfonyl)-6-[Dimethyl(Phenyl)Silyl]-2-[(4S)-2,2,4-trimethylpyrrolidin-1-yl]Pyridine-3-carboxamide], the “CFTR Modulating Activity” value was “Active”. In the case of `C[C@@H]1CN(c2nc([Si](C)(C)CCC(C)(C)C)ccc2C(=O)NS(=O)(=O)c2ccccc2)C(C)(C)C1` [Compound 2-3, N-(benzenesulfonyl)-6-[3,3-dimethylbutyl(dimethyl)silyl]-2-[(4S)-2,2,4-trimethylpyrrolidin-1-yl]pyridine-3-carboxamide], the “CFTR Modulating Activity” value was “Active”. For `Cc1ccc([Si](C)(C)c2ccc(C(=O)NS(=O)(=O)c3ccccc3)c(N3C[C@@H](C)CC3(C)C)n2)cc1` [Compound 2-4, N-(Benzenesulfonyl)-6-[Dimethyl(p-tolyl)Silyl]-2-[(4S)-2,2,4-trimethylpyrrolidin-1-yl]pyridine-3-carboxamide], the “CFTR Modulating Activity” value was “Active”. `C[C@@H]1CN(c2nc(-n3ccc([Si](C)(C)CCC(C)(C)C)n3)ccc2C(=O)NS(=O)(=O)c2ccccc2)C(C)(C)C1` [Compound 2-5, N-(Benzenesulfonyl)-6-[3-[3,3-dimethylbutyl(Dimethyl)Silyl]Pyrazol-1-yl]-2-[(4S)-2,2,4-trimethylpyrrolidin-1-yl]Pyridine-3-carboxamide] was tested, and the “CFTR Modulating Activity” value was “Active”. For `C[C@@H]1CN(c2nc(-n3ccc(OCCC4([Si](C)(C)C)CC4)n3)ccc2C(=O)NS(=O)(=O)c2ccccc2)C(C)(C)C1` [Compound 2-6, N-(Benzenesulfonyl)-2-[(4S)-2,2,4-trimethylpyrrolidin-1-yl]-6-[3-[2-(1-trimethylsilylcyclopropyl)Ethoxy]Pyrazol-1-yl] Pyridine-3-carboxamide], the “CFTR Modulating Activity” value was “Active”. With `C[C@@H]1CN(c2nc(-n3ccc(OCC[Si](C)(C)C)n3)ccc2C(=O)NS(=O)(=O)c2ccccc2)C(C)(C)C1` [Compound 2-7, N-(Benzenesulfonyl)-2-[(4S)-2,2,4-trimethylpyrrolidin-1-yl]-6-[3-(2-trimethylsilylethoxy)Pyrazol-1-yl]Pyridine-3-carboxamide] the “CFTR Modulating Activity” value was “Active”. `C[C@@H]1CN(c2nc([Si](C)(C)C)ccc2C(=O)NS(=O)(=O)c2ccccc2)C(C)(C)C1` [Compound 2-8, N-(Benzenesulfonyl)-2-[(4S)-2,2,4-trimethylpyrrolidin-1-yl]-6-trimethylsilyl-pyridine-3-carboxamide] was tested, and the “CFTR Modulating Activity” value was “Active”. For `C[C@@H]1CN(c2nc(-n3ccc(OCCC[Si](C)(C)C)n3)ccc2C(=O)NS(=O)(=O)c2ccccc2)C(C)(C)C1` [Compound 2-9, N-(Benzenesulfonyl)-2-[(4S)-2,2,4-trimethylpyrrolidin-1-yl]-6-[3-(3-trimethylsilylpropoxy)Pyrazol-1-yl]Pyridine-3-carboxamide], the “CFTR Modulating Activity” value was “Active”. With `C[C@@H]1CN(c2nc(-n3ccc(OC[Si](C)(C)C)n3)ccc2C(=O)NS(=O)(=O)c2ccccc2)C(C)(C)C1` [Compound 2-11, N-(Benzenesulfonyl)-2-[(4S)-2,2,4-trimethylpyrrolidin-1-yl]-6-[3-(Trimethylsilylmethoxy)Pyrazol-1-yl]Pyridine-3-carboxamide] the “CFTR Modulating Activity” value was “Active”. `C[C@@H]1CN(c2nc(-n3ccc([Si](C)(C)CCC(F)(F)F)n3)ccc2C(=O)NS(=O)(=O)c2ccccc2)C(C)(C)C1` [Compound 2-12, N-(Benzenesulfonyl)-6-[3-[Dimethyl(3,3,3-trifluoropropyl)Silyl]Pyrazol-1-yl]-2-[(4S)-2,2,4-trimethylpyrrolidin-1-yl]Pyridine-3-carboxamide] was tested, and the “CFTR Modulating Activity” value was “Active”. In the case of `C[C@@H]1CN(c2nc(-n3ccc([Si](C)(C)C(C)(C)C)n3)ccc2C(=O)NS(=O)(=O)c2ccccc2)C(C)(C)C1` [Compound 2-14, N-(benzenesulfonyl)-6-[3-[Tert-butyl(Dimethyl)Silyl]Pyrazol-1-yl]-2-[(4S)-2,2,4-trimethylpyrrolidin-1-yl]Pyridine-3-carboxamide], the “CFTR Modulating Activity” value was “Active”. With `C[C@@H]1CN(c2nc(-n3ccc(OC[Si](C)(C)C(C)(C)C)n3)ccc2C(=O)NS(=O)(=O)c2ccccc2)C(C)(C)C1` [Compound 2-15, N-(Benzenesulfonyl)-6-[3-[[tert-butyl(dimethyl)silyl]methoxy]pyrazol-1-yl]-2-[(4S)-2,2,4-trimethylpyrrolidin-1-yl]pyridine-3-carboxamide] the “CFTR Modulating Activity” value was “Active”. `C[C@@H]1CN(c2nc(-n3ccc(OCC(C)(C)C(F)(F)F)n3)ccc2C(=O)NS(=O)(=O)c2cccc([Si](C)(C)C)c2)C(C)(C)C1` [Compound 2-16, 6-[3-(3,3,3-trifluoro-2,2-dimethyl-propoxy)pyrazol-1-yl]-2-[(4S)-2,2,4-trimethylpyrrolidin-1-yl]—N—(3-trimethylsilylphenyl)sulfonyl-pyridine-3-carboxamide] was tested, and the “CFTR Modulating Activity” value was “Active”. For `C[C@@H]1CN(c2nc(-n3ccc(OCCC4(C(F)(F)F)CC4)n3)ccc2C(=O)NS(=O)(=O)c2cccc([Si](C)(C)C)c2)C(C)(C)C1` [Compound 2-17, 6-[3-[2-[1-(Trifluoromethyl)Cyclopropyl]Ethoxy]Pyrazol-1-yl]-2-[(4S)-2,2,4-trimethylpyrrolidin-1-yl]-N-(3-trimethylsilylphenyl)Sulfonyl-pyridine-3-carboxamide], the “CFTR Modulating Activity” value was “Active”. For `C[C@@H]1CN(c2nc(-n3ccc([Si](C)(C)C)n3)ccc2C(=O)NS(=O)(=O)c2ccccc2)C(C)(C)C1` [Compound 2-18, N-(benzenesulfonyl)-2-[(4S)-2,2,4-trimethylpyrrolidin-1-yl]-6-(3-trimethylsilylpyrazol-1-yl)pyridine-3-carboxamide], the “CFTR Modulating Activity” value was “Active”.
